Assay results published in patent US8796466B2, “Hepatitis C virus inhibitors” (Bristol-Myers Squibb Company, priority 2009, dated 2014).
Like-named read-outs stand apart in the source and are kept apart here.

Tested on: HCV 1b genotype
Assay: HCV Replicon assay (HCV 1b genotype)
Assay type: cell-based, Hepatitis C virus
Details: Hepatitis C virus, HCV 1b genotype replicon
Experimental: An HCV Replicon assay was utilized in the present disclosure, and was prepared, conducted and validated as described in commonly owned PCT/US2006/022197 and in O'Boyle et. al. Antimicrob Agents Chemother. 2005 April; 49(4):1346-53. Assay methods incorporating luciferase reporters have also been used as described (Apath.com).
HCV-neo replicon cells and replicon cells containing mutations in the NS5A region were used to test the currently described family of compounds. The compounds were determined to have more than 10-fold less inhibitory activity on cells containing mutations than wild-type cells. Thus, the compounds of the present disclosure can be effective in inhibiting the function of the HCV NS5A protein and are understood to be as effective in combinations as previously described in application PCT/US2006/022197 and commonly owned WO/04014852. Further, the compounds of the present disclosure can be effective against the HCV 1b genotype. It should also be understood that the compounds of the present disclosure can inhibit multiple genotypes of HCV. […] In one embodiment, compounds of the present disclosure are inhibitory versus 1a, 1b, 2a, 2b, 3a, 4a, and 5a genotypes.

[1] = class symbol, read-out: Range (EC50 values against HCV 1b)
[2] = Effective 50% inhibitory concentration, read-out: 1b EC50

| Structure (SMILES) | EC50 [1] [nM] | EC50 [2] [nM] |
| --- | --- | --- |
| COC(=O)N[C@H](C(=O)N1[C@@H]2C[C@@H]2C[C@H]1c1ncc(-c2cccc(C#Cc3cccc(-c4cnc([C@@H]5C[C@H]6C[C@H]6N5C(=O)[C@@H](NC(=O)OC)C(C)C)[nH]4)c3)c2)[nH]1)C(C)C [Example J3, methyl ((1S)-1-(((1R,3S,5R)-3-(4-(3-((3-(2-((1R,3S,5R)-2-((2S)-2-((methoxycarbonyl)amino)-3-methylbutanoyl)-2-azabicyclo[3.1.0]hex-3-yl)-1H-imidazol-4-yl)phenyl)ethynyl)phenyl)-1H-imidazol-2-yl)-2-azabicyclo[3.1.0]hex-2-yl)carbonyl)-2-methylpropyl)carbamate] | 0.002 to 0.099 | – |
| COC(=O)N[C@H](C(=O)N1[C@@H]2C[C@@H]2C[C@H]1c1ncc(-c2cccc(C#Cc3cccc(-c4cnc([C@@H]5C[C@H]6C[C@H]6N5C(=O)[C@@H](NC(=O)OC)C5CCOCC5)[nH]4)c3)c2)[nH]1)C1CCOCC1 [Example J4, dimethyl (1,2-ethynediylbis(3,1-phenylene-1H-imidazole-4,2-diyl(1R,3S,5R)-2-azabicyclo[3.1.0]hexane-3,2-diyl((1S)-2-oxo-1-(tetrahydro-2H-pyran-4-yl)-2,1-ethanediyl)))biscarbamate] | 0.002 to 0.099 | – |
| COC(=O)N[C@H](C(=O)N1CCC[C@H]1c1nc(-c2ccc(C#Cc3ccc(-c4ccc(-c5c[nH]c([C@@H]6CCCN6C(=O)[C@@H](NC(=O)OC)C(C)C)n5)cc4)cc3)cc2)c[nH]1)C(C)C [Example J5, methyl ((1S)-1-(((2S)-2-(4-(4′-((4-(2-((2S)-1-((2S)-2-((methoxycarbonyl)amino)-3-methylbutanoyl)-2-pyrrolidinyl)-1H-imidazol-4-yl)phenyl)ethynyl)-4-biphenylyl)-1H-imidazol-2-yl)-1-pyrrolidinyl)carbonyl)-2-methylpropyl)carbamate] | 0.002 to 0.099 | – |
| COC(=O)N[C@H](C(=O)N1CCC[C@H]1c1nc(-c2ccc(C#Cc3ccc(-c4c[nH]c([C@@H]5CCCN5C(=O)[C@@H](NC(=O)OC)C(C)C)n4)cc3)cc2)c[nH]1)C(C)C [Example M1, methyl ((1S)-1-(((2S)-2-(4-(4-((4-(2-((2S)-1-((2S)-2-((methoxycarbonyl)amino)-3-methylbutanoyl)-2-pyrrolidinyl)-1H-imidazol-4-yl)phenyl)ethynyl)phenyl)-1H-imidazol-2-yl)-1-prrolidinyl)carbonyl)-2-methylpropyl)carbamate] | 0.002 to 0.099 | – |
| COC(=O)N[C@@H](C(=O)N1CCC[C@H]1c1nc(-c2ccc(C#Cc3ccc(-c4c[nH]c([C@@H]5CCCN5C(=O)[C@H](NC(=O)OC)c5ccccc5)n4)cc3)cc2)c[nH]1)c1ccccc1 [Example M2, dimethyl (1,2-ethynediylbis(4,1-phenylene-1H-imidazole-4,2-diyl(2S)-2,1-pyrrolidinediyl((1R)-2-oxo-1-phenyl-2,1-ethanediyl)))biscarbamate] | 0.1 to 0.99 | 0.24 |
| COC(=O)N[C@H](C(=O)N1CCC[C@H]1c1nc(-c2ccc(C#Cc3ccc(-c4c[nH]c([C@@H]5CCCN5C(=O)[C@@H](NC(=O)OC)C5CCOCC5)n4)cc3)cc2)c[nH]1)C1CCOCC1 [Example M2.1, dimethyl (1,2-ethynediylbis(4,1-phenylene-1H-imidazole-4,2-diyl(2S)-2,1-pyrrolidinediyl((1S)-2-oxo-1-(tetrahydro-2H-pyran-4-yl)-2,1-ethanediyl)))biscarbamate] | 0.002 to 0.099 | – |
| COC(=O)N[C@H](C(=O)N1[C@@H]2C[C@@H]2C[C@H]1c1nc(-c2ccc(C#Cc3ccc(-c4c[nH]c([C@@H]5C[C@H]6C[C@H]6N5C(=O)[C@@H](NC(=O)OC)C(C)C)n4)cc3)cc2)c[nH]1)C(C)C [Example M3, methyl ((1S)-1-(((1R,3S,5R)-3-(4-(4-((4-(2-((1R,3S,5R)-2-((2S)-2-((methoxycarbonyl)amino)-3-methylbutanoyl)-2-azabicyclo[3.1.0]hex-3-yl)-1H-imidazol-4-yl)phenyl)ethynyl)phenyl)-1H-imidazol-2-yl)-2-azabicyclo[3.1.0]hex-2-yl)carbonyl)-2-methylpropyl)carbamate] | 0.002 to 0.099 | – |
| CC[C@H](NC(=O)OC)C(=O)N1[C@@H]2C[C@@H]2C[C@H]1c1nc(-c2ccc(C#Cc3ccc(-c4c[nH]c([C@@H]5C[C@H]6C[C@H]6N5C(=O)[C@H](CC)NC(=O)OC)n4)cc3)cc2)c[nH]1 [Example M4, dimethyl (1,2-ethynediylbis(4,1-phenylene-1H-imidazole-4,2-diyl(1R,3S,5R)-2-azabicyclo[3.1.0]hexane-3,2-diyl((2S)-1-oxo-1,2-butanediyl)))biscarbamate] | 0.002 to 0.099 | – |
| COC(=O)N[C@H](C(=O)N1[C@@H]2C[C@@H]2C[C@H]1c1nc(-c2ccc(C#Cc3ccc(-c4c[nH]c([C@@H]5C[C@H]6C[C@H]6N5C(=O)[C@@H](NC(=O)OC)C5CCC5)n4)cc3)cc2)c[nH]1)C1CCC1 [Example M5, dimethyl (1,2-ethynediylbis(4,1-phenylene-1H-imidazole-4,2-diyl(1R,3S,5R)-2-azabicyclo[3.1.0]hexane-3,2-diyl((1S)-1-cyclobutyl-2-oxo-2,1-ethanediyl)))biscarbamate] | 0.1 to 0.99 | – |
| COC(=O)N[C@H](C(=O)N1[C@@H]2C[C@@H]2C[C@H]1c1nc(-c2ccc(C#Cc3ccc(-c4c[nH]c([C@@H]5C[C@H]6C[C@H]6N5C(=O)[C@@H](NC(=O)OC)C5CCOCC5)n4)cc3)cc2)c[nH]1)C1CCOCC1 [Example M6, dimethyl (1,2-ethynediylbis(4,1-phenylene-1H-imidazole-4,2-diyl(1R,3S,5R)-2-azabicyclo[3.1.0]hexane-3,2-diyl((1S)-2-oxo-1-(tetrahydro-2H-pyran-4-yl)-2,1-ethanediyl)))biscarbamate] | 0.002 to 0.099 | 0.0033 |
| COC(=O)N[C@H](C(=O)N1[C@@H]2C[C@@H]2C[C@H]1c1nc(-c2ccc(C#Cc3ccc(-c4c[nH]c([C@@H]5C[C@H]6C[C@H]6N5C(=O)[C@@H](NC(=O)OC)C5CCOCC5)n4)cc3)cc2)c[nH]1)C(C)C [Example M7, methyl ((1S)-1-(((1R,3S,5R)-3-(4-(4-((4-(2-((1R,3S,5R)-2-((2S)-2-((methoxycarbonyl)amino)-2-(tetrahydro-2H-pyran-4-yl)acetyl)-2-azabicyclo[3.1.0]hex-3-yl)-1H-imidazol-4-yl)phenyl)ethynyl)phenyl)-1H-imidazol-2-yl)-2-azabicyclo[3.1.0]hex-2-yl)carbonyl)-2-methylpropyl)carbamate] | 0.002 to 0.099 | – |
| COC(=O)N[C@H](C(=O)N1[C@@H]2C[C@@H]2C[C@H]1c1nc(-c2ccc(C#Cc3ccc(-c4[nH]c([C@@H]5C[C@H]6C[C@H]6N5C(=O)[C@@H](NC(=O)OC)C(C)C)nc4Cl)cc3)cc2)c[nH]1)C(C)C [Example M8, methyl ((1S)-1-(((1R,3S,5R)-3-(4-chloro-5-(4-((4-(2-((1R,3S,5R)-2-((2S)-2-((methoxycarbonyl)amino)-3-methylbutanoyl)-2-azabicyclo[3.1.0]hex-3-yl)-1H-imidazol-4-yl)phenyl)ethynyl)phenyl)-1H-imidazol-2-yl)-2-azabicyclo[3.1.0]hex-2-yl)carbonyl)-2-methylpropyl)carbamate] | 0.002 to 0.099 | – |
